“And” between values parts separate entries of the source, which are not always exact repeats. Equal entries are not always repeated. Where two headings read alike, the source gives them in different places.
Assays:
[1] = molecular target: T1, InvF (Salmonella typhimurium, UniProt P69343); assay: ITC: c-di-GMP binding to InvF; design: His6 (N, cleaved yes); made in house; host or cells: E. coli BL21(DE3), pET-28a (pET28a-invF); species or system S. Typhimurium
T1 sequence (P69343 1-216): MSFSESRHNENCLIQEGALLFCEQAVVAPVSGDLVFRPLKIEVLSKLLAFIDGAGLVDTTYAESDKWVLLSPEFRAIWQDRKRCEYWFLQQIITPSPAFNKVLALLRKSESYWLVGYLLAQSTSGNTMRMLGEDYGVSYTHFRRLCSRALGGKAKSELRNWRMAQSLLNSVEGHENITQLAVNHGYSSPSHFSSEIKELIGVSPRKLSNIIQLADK

[2] = molecular target: T2, SycD (WP_010891209) (Yersinia enterocolitica, UniProt O87496); type: binding; conditions: for Kd: ITC
T2 sequence (O87496 1-168): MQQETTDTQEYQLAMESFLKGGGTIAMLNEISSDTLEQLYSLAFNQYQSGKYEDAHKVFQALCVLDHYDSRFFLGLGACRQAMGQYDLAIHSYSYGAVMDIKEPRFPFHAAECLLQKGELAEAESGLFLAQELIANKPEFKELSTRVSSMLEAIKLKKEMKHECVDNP

[3] = molecular target: T3, SicA D67A (Salmonella typhimurium, UniProt P69066, D67A); type: binding, S. Typhimurium
T3 construct: His6 (N, cleaved yes); made in house; host or cells: E. coli BL21(DE3), pET-28a (pET28a-sicAD67A)
T3 sequence (P69066 whole entry D67A): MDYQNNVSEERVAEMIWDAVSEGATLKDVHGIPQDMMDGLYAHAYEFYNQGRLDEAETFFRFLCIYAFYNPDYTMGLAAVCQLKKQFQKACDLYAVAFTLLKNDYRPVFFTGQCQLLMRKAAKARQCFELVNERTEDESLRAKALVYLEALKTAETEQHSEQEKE

In the case of Nc1nc2c(ncn2C2OC3COP(=O)(O)OC4C(COP(=O)(O)OC3C2O)OC(n2cnc3c(=O)[nH]c(N)nc32)C4O)c(=O)[nH]1 (stereo not drawn) [c-di-GMP, Cyclic di-GMP], the “Binding to InvF (in words)” value [1] is reported as “does not bind”, the “n, c-di-GMP binding to SycD” value ([2]; ITC binding stoichiometry n, individual replicates, Supplementary Figure 22c) is reported as 1.15 and 1.12 and the Kd ([2]; individual replicates, Supplementary Figure 22c, read-out: Kd, c-di-GMP binding to SycD) is reported as 0.18 µM and 0.15 µM and 0.16 µM. For the same compound, the Kd ([2]; range given for all 6 chaperones (PcrH, IpgC, SycD, CesD, BicA, VcrH), read-out: Kd) was 0.15 to 0.22 µM, the “n, c-di-GMP binding to SicAD67A” value ([3]; ITC binding stoichiometry n, individual replicates, Supplementary Figure 17d) was 0.99 and 1.02 and 0.94 and the Kd ([3]; binding to SicA D67A) was 33 µM and 34 µM and 32 µM.
